Experimental data as given in PMC12136037, “Type II kinase inhibitors that target Parkinson’s disease–associated LRRK2” (Science Advances, 2025).
Values joined by “and” are separate entries in the source; they are usually repeats but may differ in a detail not shown here. Equal values may be shown once. Read-outs that look alike come from different tables or passages of the source.

What was measured:
Test in all cases: nanoBRET off-target validation
Format in all cases: cell-based
[1] = biological target: T1, STK17B (Homo sapiens, UniProt O94768)
T1 construct: host or cells: HEK293T (ATCC CRL-3216)
T1 sequence (O94768 1-372): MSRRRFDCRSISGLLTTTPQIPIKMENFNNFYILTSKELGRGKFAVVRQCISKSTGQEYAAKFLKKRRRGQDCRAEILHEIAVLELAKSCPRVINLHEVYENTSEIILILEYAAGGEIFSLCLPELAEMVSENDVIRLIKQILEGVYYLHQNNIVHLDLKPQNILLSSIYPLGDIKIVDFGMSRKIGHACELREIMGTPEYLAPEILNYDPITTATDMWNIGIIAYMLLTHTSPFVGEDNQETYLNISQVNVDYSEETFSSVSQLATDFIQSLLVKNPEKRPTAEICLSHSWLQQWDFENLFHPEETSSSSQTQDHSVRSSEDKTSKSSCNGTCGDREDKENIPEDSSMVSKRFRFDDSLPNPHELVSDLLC
Method: (§1) The assay was performed as described previously ([61]). In brief, full-length kinases as listed in table S6 were obtained as plasmids cloned in frame with terminal NanoLuc-fusion (gift from Promega; table S6). […] Serially diluted inhibitor and corresponding tracer as listed in table S6 at the Tracer KD concentration taken from TracerDB (tracerdb.org) ([62]) were pipetted into white 384-well plates (Greiner, 781207) using an ECHO acoustic dispenser (Labcyte). The corresponding protein-transfected cells were added and reseeded at a density of 2 × 10^5 cells/ml after trypsinization and resuspending in Opti-MEM without phenol red (Life Technologies). The system was allowed to equilibrate for 3 hours at 37°C/5% CO2 before bioluminescence resonance energy transfer (BRET) measurements. To measure BRET, NanoBRET NanoGlo Substrate + extracellular NanoLuc Inhibitor (Promega, N2540) was added as per the manufacturer’s protocol, and filtered luminescence was measured on a PHERAstar plate reader (BMG Labtech) equipped with a luminescence filter pair [450-nm BP filter (donor) and 610-nm LP filter (acceptor)]. […] (For step-by-step protocol, see www.eubopen.org/sites/www.eubopen.org/files/attachments/2021/NanoBRET-IC50_v1_0.pdf.)

[2] = biological target: T2, DYRK2 (Homo sapiens, UniProt Q92630)
T2 construct: host or cells: HEK293T (ATCC CRL-3216)
T2 sequence (Q92630 1-601): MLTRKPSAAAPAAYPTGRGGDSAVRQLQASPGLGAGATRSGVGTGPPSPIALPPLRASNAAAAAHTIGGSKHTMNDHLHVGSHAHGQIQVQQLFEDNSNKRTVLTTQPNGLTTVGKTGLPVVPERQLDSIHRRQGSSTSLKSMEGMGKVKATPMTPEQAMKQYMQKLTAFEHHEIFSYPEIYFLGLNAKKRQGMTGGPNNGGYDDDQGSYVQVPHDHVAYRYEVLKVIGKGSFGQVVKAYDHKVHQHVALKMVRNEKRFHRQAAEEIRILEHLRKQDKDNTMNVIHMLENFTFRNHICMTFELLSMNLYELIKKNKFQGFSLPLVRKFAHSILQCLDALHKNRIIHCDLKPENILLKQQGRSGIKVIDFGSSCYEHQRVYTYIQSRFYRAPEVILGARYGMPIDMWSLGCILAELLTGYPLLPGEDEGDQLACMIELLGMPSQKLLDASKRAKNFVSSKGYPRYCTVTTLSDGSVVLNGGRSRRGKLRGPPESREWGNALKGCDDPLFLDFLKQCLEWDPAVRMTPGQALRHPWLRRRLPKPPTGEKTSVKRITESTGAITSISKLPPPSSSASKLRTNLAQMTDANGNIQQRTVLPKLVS
Method: as §1

[3] = biological target: T3, JNK3 (Homo sapiens, UniProt P53779)
T3 construct: host or cells: HEK293T (ATCC CRL-3216)
T3 sequence (P53779 whole entry): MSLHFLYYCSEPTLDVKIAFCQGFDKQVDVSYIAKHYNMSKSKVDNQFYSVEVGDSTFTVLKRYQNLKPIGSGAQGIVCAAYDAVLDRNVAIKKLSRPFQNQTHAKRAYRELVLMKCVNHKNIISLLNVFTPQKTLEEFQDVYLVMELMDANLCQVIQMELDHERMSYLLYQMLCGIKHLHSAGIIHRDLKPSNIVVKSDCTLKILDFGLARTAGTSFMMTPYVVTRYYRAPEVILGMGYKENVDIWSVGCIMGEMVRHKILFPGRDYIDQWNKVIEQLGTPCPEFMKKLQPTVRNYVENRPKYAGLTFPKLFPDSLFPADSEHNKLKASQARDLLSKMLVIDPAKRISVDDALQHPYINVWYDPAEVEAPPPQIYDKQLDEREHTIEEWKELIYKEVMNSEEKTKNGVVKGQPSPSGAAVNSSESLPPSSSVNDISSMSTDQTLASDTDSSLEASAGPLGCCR
Method: as §1

For `CCSc1nc(NC)c2c(-c3cccc(NC(=O)Nc4cc(C(C)(C)C)nn4-c4ccc(C)cc4)c3)c[nH]c2n1` [Compound 32], the EC50 [1] was no less than 20 µM, the “nanoBRET response normalized to 0% (no tracer) and 100% (no inhibitor) control” value ([1]; STK17B, inhibitor 8 nM, two replicates, listed as RN341, 0.008 µM) was 97.0874% and the NanoBRET tracer signal (% of no-inhibitor control) at 0.008 µM ([1]; STK17B, inhibitor 8 nM, two replicates, read-out: nanoBRET response normalized to 0% (no tracer) and 100% (no inhibitor) control) was 97.6%. The “nanoBRET response normalized to 0% (no tracer) and 100% (no inhibitor) control” value ([1]; STK17B, inhibitor 16 nM, two replicates, listed as RN341, 0.016 µM) was 82.8095%, the NanoBRET tracer signal (% of no-inhibitor control) at 0.016 µM ([1]; STK17B, inhibitor 16 nM, two replicates, read-out: nanoBRET response normalized to 0% (no tracer) and 100% (no inhibitor) control) was 94.7% and the “nanoBRET response normalized to 0% (no tracer) and 100% (no inhibitor) control” value ([1]; STK17B, inhibitor 50 nM, two replicates, listed as RN341, 0.05 µM) was 109.03%. The NanoBRET tracer signal (% of no-inhibitor control) at 0.05 µM ([1]; STK17B, inhibitor 50 nM, two replicates, read-out: nanoBRET response normalized to 0% (no tracer) and 100% (no inhibitor) control) was 112%, the “nanoBRET response normalized to 0% (no tracer) and 100% (no inhibitor) control” value ([1]; STK17B, inhibitor 250 nM, two replicates, listed as RN341, […]) was 93.8885% and the NanoBRET tracer signal (% of no-inhibitor control) at […] ([1]; STK17B, inhibitor 250 nM, two replicates, read-out: nanoBRET response normalized to 0% (no tracer) and 100% (no inhibitor) control) was 111%. For the same compound, the “nanoBRET response normalized to 0% (no tracer) and 100% (no inhibitor) control” value ([1]; STK17B, inhibitor 500 nM, two replicates, listed as RN341, 0.5 µM) was 103.232% and 77.6568%, the NanoBRET tracer signal (% of no-inhibitor control) at […] ([1]; STK17B, inhibitor 2500 nM, two replicates, read-out: nanoBRET response normalized to 0% (no tracer) and 100% (no inhibitor) control) was 122% and 101% and the “nanoBRET response normalized to 0% (no tracer) and 100% (no inhibitor) control” value ([1]; STK17B, inhibitor 5000 nM, two replicates, listed as RN341, 5 µM) was 104.626% and 83.1368%. For the same compound, the “nanoBRET response normalized to 0% (no tracer) and 100% (no inhibitor) control” value ([1]; STK17B, inhibitor 25000 nM, two replicates, listed as RN341, 25 µM) was 75.7774%, the NanoBRET tracer signal (% of no-inhibitor control) at 25 µM ([1]; STK17B, inhibitor 25000 nM, two replicates, read-out: nanoBRET response normalized to 0% (no tracer) and 100% (no inhibitor) control) was 80.3% and the EC50 [2] was no less than 20 µM. For the same compound, the “nanoBRET response normalized to 0% (no tracer) and 100% (no inhibitor) control” value ([2]; DYRK2, inhibitor 8 nM, two replicates, listed as RN341, 0.008 µM) was 91.4839%, the remaining nanoBRET tracer signal (% of no-inhibitor control) at 0.008 µM ([2]; DYRK2, inhibitor 8 nM, two replicates, read-out: nanoBRET response normalized to 0% (no tracer) and 100% (no inhibitor) control) was 100% and the “nanoBRET response normalized to 0% (no tracer) and 100% (no inhibitor) control” value ([2]; DYRK2, inhibitor 16 nM, two replicates, listed as RN341, 0.016 µM) was 93.886%. The remaining nanoBRET tracer signal (% of no-inhibitor control) at 0.016 µM ([2]; DYRK2, inhibitor 16 nM, two replicates, read-out: nanoBRET response normalized to 0% (no tracer) and 100% (no inhibitor) control) was 98.2%, the “nanoBRET response normalized to 0% (no tracer) and 100% (no inhibitor) control” value ([2]; DYRK2, inhibitor 50 nM, two replicates, listed as RN341, 0.05 µM) was 96.6464% and the remaining nanoBRET tracer signal (% of no-inhibitor control) at 0.05 µM ([2]; DYRK2, inhibitor 50 nM, two replicates, read-out: nanoBRET response normalized to 0% (no tracer) and 100% (no inhibitor) control) was 100%. The remaining nanoBRET tracer signal (% of no-inhibitor control) at […] ([2]; DYRK2, inhibitor 250 nM, two replicates, read-out: nanoBRET response normalized to 0% (no tracer) and 100% (no inhibitor) control) was 102% and 94.4%, the “nanoBRET response normalized to 0% (no tracer) and 100% (no inhibitor) control” value ([2]; DYRK2, inhibitor 500 nM, two replicates, listed as RN341, 0.5 µM) was 90.6654% and the remaining nanoBRET tracer signal (% of no-inhibitor control) at 0.5 µM ([2]; DYRK2, inhibitor 500 nM, two replicates, read-out: nanoBRET response normalized to 0% (no tracer) and 100% (no inhibitor) control) was 98.4%. The “nanoBRET response normalized to 0% (no tracer) and 100% (no inhibitor) control” value ([2]; DYRK2, inhibitor 2500 nM, two replicates, listed as RN341, […]) was 86.4231%, the remaining nanoBRET tracer signal (% of no-inhibitor control) at […] ([2]; DYRK2, inhibitor 2500 nM, two replicates, read-out: nanoBRET response normalized to 0% (no tracer) and 100% (no inhibitor) control) was 88.8% and the “nanoBRET response normalized to 0% (no tracer) and 100% (no inhibitor) control” value ([2]; DYRK2, inhibitor 5000 nM, two replicates, listed as RN341, 5 µM) was 92.7606%. The remaining nanoBRET tracer signal (% of no-inhibitor control) at 5 µM ([2]; DYRK2, inhibitor 5000 nM, two replicates, read-out: nanoBRET response normalized to 0% (no tracer) and 100% (no inhibitor) control) was 83.2%, the “nanoBRET response normalized to 0% (no tracer) and 100% (no inhibitor) control” value ([2]; DYRK2, inhibitor 25000 nM, two replicates, listed as RN341, 25 µM) was 54.6216% and the remaining nanoBRET tracer signal (% of no-inhibitor control) at 25 µM ([2]; DYRK2, inhibitor 25000 nM, two replicates, read-out: nanoBRET response normalized to 0% (no tracer) and 100% (no inhibitor) control) was 47.6%. For the same compound, the EC50 [3] was 15 µM and the “nanoBRET response normalized to 0% (no tracer) and 100% (no inhibitor) control” value ([3]; JNK3, inhibitor 8 nM, two replicates, listed as RN341, 0.008 µM) was 99.6644%.
